# Experimental data as given in ChEMBL document CHEMBL1201862, “PubChem BioAssay data set” (2004).
#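 Compound exposure: 48 hours, 5 concentrations, 96-well plates. GI50 = concentration required for 50% inhibition of growth.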 Calls of active or inactive are those of the source. Rule as the data show it: active = GI50 up to about 1.1 µM and inactive = higher.
# What was measured:
# Assay in all cases: NCI anticancer screen, dose series, 48 h
# [1] = tested on: A498
# [2] = tested on: COLO 205
# [3] = tested on: RPMI-8226
# [4] = tested on: NCI/ADR-RES
# [5] = tested on: HCC 2998
# [6] = tested on: SN12C
# [7] = tested on: Malme-3M
# [8] = tested on: RXF 393
# [9] = tested on: KM12
# [10] = tested on: IGROV-1
# [11] = tested on: SK-MEL-28
# [12] = tested on: U-251
# [13] = tested on: SK-MEL-5
# [14] = tested on: ACHN
# [15] = tested on: SF-295
# [16] = tested on: SK-OV-3
# [17] = tested on: MOLT-4
# [18] = tested on: SW-620
# [19] = tested on: MDA-N
# [20] = tested on: LOX IMVI
# [21] = tested on: SK-MEL-2
# [22] = tested on: BT-549
# [23] = tested on: SNB-19
# [24] = tested on: HCT-15
# [25] = tested on: A549
# [26] = tested on: K562
# [27] = tested on: T47D
# [28] = tested on: 786-0
# [29] = tested on: HT-29
# [30] = tested on: UACC-257
# [31] = tested on: TK-10
# [32] = tested on: HCT-116
# [33] = tested on: PC-3
# [34] = tested on: SNB-75
# [35] = tested on: SR
# [36] = tested on: MDA-MB-435
# [37] = tested on: CAKI-1
# [38] = tested on: DU-145
# [39] = tested on: SF-539
# [40] = tested on: OVCAR-4
# [41] = tested on: CCRF-CEM
# [42] = tested on: UO-31
# [43] = tested on: HOP-62
# [44] = tested on: OVCAR-8
# [45] = tested on: OVCAR-5
# [46] = tested on: Hs-578T
# [47] = tested on: NCI-H226
# [48] = tested on: HOP-92
# [49] = tested on: NCI-H460
# [50] = tested on: OVCAR-3
# [51] = tested on: EKVX
# [52] = tested on: MCF7
# [53] = tested on: UACC-62
# [54] = tested on: M14
# [55] = tested on: NCI-H522
# [56] = tested on: HL-60
# [57] = tested on: NCI-H23
# [58] = tested on: MDA-MB-231
# [59] = tested on: SF-268
# [60] = tested on: SNB-78
# [61] = tested on: LXFL 529
# [62] = tested on: DLD-1
# [63] = tested on: HOP-18
# [64] = tested on: DMS-114
# [65] = tested on: M19-MEL
structure (smiles),measurement,setting,value
CC(C)(C)NCCC(O)c1cc(C(F)(F)F)nc2c(C(F)(F)F)cccc12 (stereo unspecified),GI50,[1],15 µM (inactive)
same,GI50,[2],10.7 µM (inactive)
same,GI50,[3],4.58 µM (inactive)
same,GI50,[4],5.97 µM (inactive)
same,GI50,[5],2.43 µM (inactive)
same,GI50,[6],7.71 µM (inactive)
same,GI50,[7],11.6 µM (inactive)
same,GI50,[8],6.53 µM (inactive)
same,GI50,[9],2.77 µM (inactive)
same,GI50,[10],10.3 µM (inactive)
same,GI50,[11],15.7 µM (inactive)
same,GI50,[12],7.53 µM (inactive)
same,GI50,[13],12.5 µM (inactive)
same,GI50,[14],8.3 µM (inactive)
same,GI50,[15],8.75 µM (inactive)
same,GI50,[16],16.2 µM (inactive)
same,GI50,[17],4.12 µM (inactive)
same,GI50,[18],18 µM (inactive)
same,GI50,[19],11.5 µM (inactive)
same,GI50,[20],1.12 µM (inactive)
same,GI50,[21],11.2 µM (inactive)
same,GI50,[22],8.11 µM (inactive)
same,GI50,[23],13.6 µM (inactive)
same,GI50,[24],6.41 µM
same,GI50,[25],4.38 µM (inactive)
same,GI50,[26],5.14 µM (inactive)
same,GI50,[27],14.3 µM (inactive)
same,GI50,[28],6.98 µM (inactive)
same,GI50,[29],6.08 µM (inactive)
same,GI50,[30],13.5 µM (inactive)
same,GI50,[31],12.2 µM (inactive)
same,GI50,[32],5.07 µM (inactive)
same,GI50,[33],8.57 µM (inactive)
same,GI50,[34],11.1 µM (inactive)
same,GI50,[35],3.62 µM (inactive)
same,GI50,[36],12.9 µM (inactive)
same,GI50,[37],4.25 µM (inactive)
same,GI50,[38],2.38 µM (inactive)
same,GI50,[39],14.7 µM (inactive)
same,GI50,[40],12.3 µM (inactive)
same,GI50,[41],5.57 µM (inactive)
same,GI50,[42],0.502 µM (active)
same,GI50,[43],4.67 µM (inactive)
same,GI50,[44],7.53 µM (inactive)
same,GI50,[45],15.2 µM (inactive)
same,GI50,[46],14.2 µM (inactive)
same,GI50,[47],17.3 µM (inactive)
same,GI50,[48],12.3 µM (inactive)
same,GI50,[49],4.83 µM (inactive)
same,GI50,[50],8.38 µM (inactive)
same,GI50,[51],14 µM (inactive)
same,GI50,[52],12.6 µM (inactive)
same,GI50,[53],12.6 µM (inactive)
same,GI50,[54],7.83 µM (inactive)
same,GI50,[55],11.7 µM (inactive)
same,GI50,[56],6.37 µM (inactive)
same,GI50,[57],4.26 µM (inactive)
same,GI50,[58],9.4 µM (inactive)
same,GI50,[59],11.4 µM (inactive)
COc1ccc(/C=C(\C(C)=O)C(=O)Nc2ccccc2)cc1,GI50,[3],> 100 µM (inactive)
same,GI50,[60],> 100 µM (inactive)
same,GI50,[5],> 100 µM (inactive)
same,GI50,[6],> 100 µM (inactive)
same,GI50,[7],> 100 µM (inactive)
same,GI50,[8],> 100 µM (inactive)
same,GI50,[61],> 100 µM (inactive)
same,GI50,[9],> 100 µM (inactive)
same,GI50,[10],> 100 µM (inactive)
same,GI50,[11],> 100 µM (inactive)
same,GI50,[62],> 100 µM (inactive)
same,GI50,[12],> 100 µM (inactive)
same,GI50,[13],> 100 µM (inactive)
same,GI50,[14],> 100 µM (inactive)
same,GI50,[15],> 100 µM (inactive)
same,GI50,[63],> 100 µM (inactive)
same,GI50,[16],> 100 µM (inactive)
same,GI50,[17],> 100 µM (inactive)
same,GI50,[18],> 100 µM (inactive)
same,GI50,[20],> 100 µM (inactive)
same,GI50,[21],> 100 µM (inactive)
same,GI50,[23],> 100 µM (inactive)
same,GI50,[24],> 100 µM
same,GI50,[25],> 100 µM (inactive)
same,GI50,[26],> 100 µM (inactive)
same,GI50,[28],> 100 µM (inactive)
same,GI50,[29],> 100 µM (inactive)
same,GI50,[30],> 100 µM (inactive)
same,GI50,[31],> 100 µM (inactive)
same,GI50,[32],> 100 µM (inactive)
same,GI50,[35],> 100 µM (inactive)
same,GI50,[37],> 100 µM (inactive)
same,GI50,[39],> 100 µM (inactive)
same,GI50,[40],> 100 µM (inactive)
same,GI50,[41],> 100 µM (inactive)
same,GI50,[42],> 100 µM (inactive)
same,GI50,[43],> 100 µM (inactive)
same,GI50,[44],> 100 µM (inactive)
same,GI50,[45],> 100 µM (inactive)
same,GI50,[47],> 100 µM (inactive)
same,GI50,[64],> 100 µM (inactive)
same,GI50,[48],> 100 µM (inactive)
same,GI50,[49],> 100 µM (inactive)
same,GI50,[50],> 100 µM (inactive)
same,GI50,[51],> 100 µM (inactive)
same,GI50,[53],> 100 µM (inactive)
same,GI50,[54],> 100 µM (inactive)
same,GI50,[55],> 100 µM (inactive)
same,GI50,[56],> 100 µM (inactive)
same,GI50,[57],> 100 µM (inactive)
same,GI50,[65],> 100 µM (inactive)
same,GI50,[59],> 100 µM (inactive)
